Data: patent US9434684B2, “Oxime-substituted amide compound and pest control agent” (Nissan Chemical Industries, Ltd., priority 2012, dated 2016)

Columns and labels:
Sclerotinia sclerotiorum [1] = test: Preventive effect against cucumber stem rot; format: in vivo; conditions: 48 h, test solution A 500 ppm, 2 days
Description: (§1) Compounds of the present invention were dissolved in a solvent for emulsion (a mixture of Sorpol (registered trademark) 3005XL (manufactured by Toho Chemical Industry Co., Ltd.): N-methylpyrrolidone:Solvesso (registered trademark) 200 (manufactured by ExxonMobil Chemical) in a ratio of 1:5:2) to prepare 20% emulsifiable concentrates. Then, distilled water was added to dilute the emulsifiable concentrates to the predetermined concentration (500 ppm), and the obtained solutions were used in the following Test Examples 1 to 7. Cucumber (cultivar: Sagami Hanjiro) was planted in 90 cm^3 plastic pots, and in the seed leaf stage, 5 ml per pot of test solutions A of the compounds of the present invention were applied. After drying in air, the pots were put in a plastic container, and agar blocks (diameter: 5 mm) containing Sclerotinia sclerotiorum preliminarily cultivated in a PDA medium were inoculated to the seed leaves of the cucumber treated with the solutions. After the inoculation, the plastic container was covered with a plastic sheet and humidified, and placed at 20° C. for 2 days, whereupon the proportion of the formed lesion in the inoculated leaves was measured to calculate the control value in accordance with the same formula as in Test Example 1. Here, the test was carried out in duplicate.

Botrytis cinerea [2] = test: Preventive effect against cucumber gray mold (mycelium inoculation); format: in vivo; conditions: 48 h, 100 ppm solution (*), 2 days
Meloidogyne incognita = test: Preventive effect on Meloidogyne incognita (garden balsam seedlings, root knot); format: in vivo; conditions: 504 h, test solution B 100 ppm, 1 ml per seedling, 3 weeks, read-out: efficacy (damage degree, root knot, relative to non-treated plot)
Description: Compounds of the present invention were dissolved in dimethylsulfoxide to prepare 1% solutions. Then, distilled water was added to dilute the solutions to the predetermined concentration (100 ppm), and the obtained solutions were used in the following Test Examples 8 to 12. 1 ml per seedling of test solutions B of the compounds of the present invention were treated to the bases of garden balsam seedlings (about 2 weeks after budding) planted in a cell tray of which each cell was filled with 10 g of soil. 1 Hour after the application, 1 ml per cell of water containing Meloidogyne incognita 2 L larvae (100 2 L larvae/1 ml) was applied to the bases. The tray was placed in a greenhouse for 3 weeks, and the root knot level formed on the root was determined in accordance with the following damage index and the damage degree to calculate the efficacy (%) relative to the non-treated plot in accordance with the following formula. <Damage Index> 0: No knot observed. 1: Knot observed on a part of the root system. 2: Knot observed on the entire root system. 3: Large knot observed. 4: Large knot observed on the entire root system. [Damage degree]=[Σ(damage index×number of seedlings at each index)/(4×number of seedlings investigated)]×100 Efficacy(%)=[1−(damage degree in treated plot/damage degree in non-treated plot)]×100

Botrytis cinerea [3] = test: Preventive effect against cucumber gray mold (spore inoculation); format: in vivo; conditions: 72 h, cucumber leaves, 100 ppm solution (*), 3 days
Sclerotinia sclerotiorum [4] = test: Preventive effect against cucumber stem rot; format: in vivo; conditions: 48 h, 100 ppm solution (*), 2 days
[5] = tested on: Phaeosphaeria nodorum (synonym: Septoria nodorum); test: Preventive effect against wheat glume blotch; format: in vivo; conditions: Parastagonospora nodorum, 192 h, 100 ppm solution (*), 2 + 6 days
Botrytis cinerea [6] = test: Preventive effect against cucumber gray mold (mycelium inoculation); format: in vivo; conditions: 48 h, test solution A 500 ppm, 2 days
Description: as §1, with “On the next day,” for “After drying in air,”, “Botrytis cinerea” for “Sclerotinia sclerotiorum”

[7] = tested on: Phaeosphaeria nodorum (synonym: Septoria nodorum); test: Preventive effect against wheat glume blotch; format: in vivo; conditions: Parastagonospora nodorum, 192 h, test solution A 500 ppm, 2 + 6 days
Description: (§2) Compounds of the present invention were dissolved in a solvent for emulsion (a mixture of Sorpol (registered trademark) 3005XL (manufactured by Toho Chemical Industry Co., Ltd.): N-methylpyrrolidone:Solvesso (registered trademark) 200 (manufactured by ExxonMobil Chemical) in a ratio of 1:5:2) to prepare 20% emulsifiable concentrates. Then, distilled water was added to dilute the emulsifiable concentrates to the predetermined concentration (500 ppm), and the obtained solutions were used in the following Test Examples 1 to 7. To wheat (cultivar: Haruyutaka) in 1.3-leaf stage planted in 90 cm^3 plastic pots, 5 ml per pot of test solutions A of the compounds of the present invention were applied. On the next day, a suspension of conidium of Phaeosphaeria nodorum synonym: Septoria nodorum) was spray-inoculated to the wheat, and the pots were placed in an inoculation chamber at 20° C. under a humidity of 100% for 2 days. Then, the pots were placed in an air-conditioned greenhouse (20° C.) for 6 days. The proportion of the formed lesion in the inoculated leaves was measured to calculate the control value in accordance with the same formula as in Test Example 1. Here, the test was carried out in duplicate.

Puccinia recondita = test: Preventive effect against wheat brown leaf rust; format: in vivo; conditions: 216 h, test solution A 500 ppm, 1 + 8 days
Description: as §2, with “Norin-61-go)” for “Haruyutaka)”, “spore” for “conidium”, “Puccinia recondita” for “Phaeosphaeria nodorum synonym: Septoria nodorum)”, “1 day.” for “2 days.”, “8” for “6”

Botrytis cinerea [8] = test: Preventive effect against cucumber gray mold (spore inoculation); format: in vivo; conditions: 72 h, cucumber leaves, test solution A 500 ppm, 3 days
Description: Compounds of the present invention were dissolved in a solvent for emulsion (a mixture of Sorpol (registered trademark) 3005XL (manufactured by Toho Chemical Industry Co., Ltd.): N-methylpyrrolidone:Solvesso (registered trademark) 200 (manufactured by ExxonMobil Chemical) in a ratio of 1:5:2) to prepare 20% emulsifiable concentrates. Then, distilled water was added to dilute the emulsifiable concentrates to the predetermined concentration (500 ppm), and the obtained solutions were used in the following Test Examples 1 to 7. Cucumber (cultivar: Sagami Hanjiro) was planted in 90 cm^3 plastic pots, and in the seed leaf stage, 5 ml per pot of test solutions A of the compounds of the present invention were applied. After drying in air, the treated leaves were cut and put in plastic containers. 30 μl of a mixture of a suspension of conidium of Botrytis cinerea and a dissolved PDA medium in a ratio of 1:1 was dropped on each treated leaf and inoculated. After the inoculation, the plastic containers were placed at 20° C. in humid conditions for 3 days, and the proportion of the formed lesion in the inoculated leaves was measured to calculate the control value in accordance with the same formula as in Test Example 1. Here, the test was carried out in duplicate.

With CO/N=C(/CNC(=O)c1ccccc1C(F)(F)F)c1ncc(Cl)cc1Cl [Compound No. 2-114, (Z)—N-[2-(3,5-dichloropyridin-2-yl)-2-(methoxyimino)ethyl]-2-(trifluoromethyl)benzamide] the pest or weed control at 500 µg/mL (Sclerotinia sclerotiorum [1]) was at least 70%, the melting point was 88 to 89 °C and the pest or weed control at 100 ppm (Botrytis cinerea [2]) was at least 70%. For the same molecule, the pest or weed control at 100 µg/mL (Meloidogyne incognita) was at least 50% and the pest or weed control at 100 ppm (Botrytis cinerea [3]) was at least 70%.
For CC(C)O/N=C(/CNC(=O)c1ccccc1C(F)(F)F)c1ncc(C(F)(F)F)cc1Cl [Compound No. 2-020, (Z)—N-[2-[3-chloro-5-(trifluoromethyl)pyridin-2-yl]-2-(isopropoxyimino)ethyl]-2-(trifluoromethyl)benzamide], the pest or weed control at 100 ppm (Sclerotinia sclerotiorum [4]) was at least 70%, the pest or weed control at 100 ppm [5] was at least 70% and the melting point was 97 to 98 °C. It also gave a pest or weed control at 100 ppm (Botrytis cinerea [2]) of at least 70% and a pest or weed control at 100 ppm (Botrytis cinerea [3]) of at least 70%.
Work on CON=C(c1ncc(Cl)cc1Cl)C(C)NC(=O)c1ccccc1C(F)(F)F (stereo not drawn) [Compound No. 2-115, N-[2-(3,5-dichloropyridin-2-yl)-2-methoxyimino-1-methylethyl]-2-(trifluoromethyl)benzamide] yielded a pest or weed control at 500 µg/mL (Botrytis cinerea [6]) of at least 70%, a pest or weed control at 500 µg/mL (Sclerotinia sclerotiorum [1]) of at least 70% and a pest or weed control at 500 µg/mL [7] of at least 70%. For the same molecule, the pest or weed control at 100 µg/mL (Meloidogyne incognita) was at least 50%, the pest or weed control at 500 µg/mL (Puccinia recondita) was at least 70% and the pest or weed control at 500 µg/mL (Botrytis cinerea [8]) was at least 70%.
Molecule CCO/N=C(\c1ncc(Cl)cc1Cl)[C@H](C)NC(=O)c1ccccc1C(F)(F)F [2-124, (S)—N-[2-(3,5-dichloropyridin-2-yl)-2-[(Z)-ethoxyimino]-1-methylethyl]-2-(trifluoromethyl)benzamide] has a pest or weed control at 500 µg/mL (Botrytis cinerea [6]) of at least 70%, a pest or weed control at 500 µg/mL (Sclerotinia sclerotiorum [1]) of at least 70% and a pest or weed control at 500 µg/mL [7] of at least 70%. For the same molecule, the pest or weed control at 500 µg/mL (Puccinia recondita) was at least 70% and the pest or weed control at 500 µg/mL (Botrytis cinerea [8]) was at least 70%.
Work on CON=C(CN(C(=O)c1c(C(F)(F)F)nn(C)c1F)C1CC1)c1ncc(Cl)cc1Cl [Compound No. 17-009, N-cyclopropyl-N-[2-(3,5-dichloropyridin-2-yl)-2-(methoxyimino)ethyl]-5-fluoro-1-methyl-3-trifluoromethyl-1H-pyrazole-4-carboxamide] yielded a pest or weed control at 500 µg/mL (Sclerotinia sclerotiorum [1]) of at least 70%, a melting point of 95 to 97 °C and a pest or weed control at 500 µg/mL [7] of at least 70%. It also gave a pest or weed control at 500 µg/mL (Botrytis cinerea [8]) of at least 70%.
With CON=C(CN(C(C)=O)C(=O)c1ccccc1C(F)(F)F)c1ncc(Cl)cc1Cl [4-013] the pest or weed control at 500 µg/mL (Botrytis cinerea [6]) was at least 70%, the pest or weed control at 500 µg/mL (Sclerotinia sclerotiorum [1]) was at least 70% and the pest or weed control at 500 µg/mL (Botrytis cinerea [8]) was at least 70%.
CON=C(CNC(=S)c1ccccc1C(F)(F)F)c1ncc(Br)cc1Cl [Compound No. 5-001, N-[2-(5-bromo-3-chloropyridin-2-yl)-2-(methoxyimino)ethyl]-2-(trifluoromethyl)benzthioamide] gave a pest or weed control at 500 µg/mL (Botrytis cinerea [6]) of at least 70%, a pest or weed control at 500 µg/mL (Sclerotinia sclerotiorum [1]) of at least 70% and a pest or weed control at 500 µg/mL [7] of at least 70%. The pest or weed control at 500 µg/mL (Puccinia recondita) was at least 70% and the pest or weed control at 500 µg/mL (Botrytis cinerea [8]) was at least 70%.
Molecule CC(C)ON=C(CNC(=O)c1ccccc1C(F)(F)F)c1ncc(Cl)nc1Cl [24-001] has a pest or weed control at 500 µg/mL (Botrytis cinerea [6]) of at least 70%, a pest or weed control at 500 µg/mL (Sclerotinia sclerotiorum [1]) of at least 70% and a pest or weed control at 500 µg/mL (Botrytis cinerea [8]) of at least 70%.
